Consider one molecule from patent US20170202792A1, “METHOD FOR TREATING TAU-ASSOCIATED DISEASES” (NATIONAL TAIWAN NORMAL UNIVERSITY, priority 2016, published 2017).

One assay deals with T1, Recombinant human GSK-3β (Homo sapiens, UniProt P49841).
T1 construct: purchased Promega V1991
Briefly: GSK-3β kinase activity, ADP-Glo Kinase Assay. Type of assay: biochemical. The procedure: The ability of the compound (I) and SB216763 (compound (II)) for inhibiting GSK-3β activity is evaluated in the following paragraphs, wherein compound (II) is a known GSK-3β inhibitor in the art (Product No. 53442, Sigma). GSK-3β kinase activity was measured in the presence of the tested compounds (I) and (II) using ADP-Glo™ Kinase Assay system (Promega). Recombinant human GSK-3β (Product code V1991, Promega) was used as the enzyme source, and the GSK-3β substrate is derived from human muscle glycogen synthase 1 peptide ([…](pS)EDEEE) which corresponds to a region of glycogen synthase that is phosphorylated by GSK-3β. Reactions were performed at 30° C. for 30 minutes in 25 μL mixture that contained 25 μM ATP, 0.2 mg/mL GSK-3β substrate, 1 ng of GSK-3β, and serial dilutions of compound (I) or compound (II). Kinase activity data were measured as relative light units (RLU) directly correlated with the amount of ADP produced and FIG. 1 showing the analysis results.
The IC50 values of compound (I) and compound (II) were determined by using SigmaPLOT software.
On the technique in general: ADP-Glo first removes unused ATP, then detects ADP through luciferase.

The subject of a further assay is GSK-3β. The assay can be described thus: Western blot of mouse hippocampal tissue, GSK-3β. It is filed as in vivo. To be noted: hyperglycemic 3×Tg-AD mice; 0.25 mg/kg i.p. daily. The method, then: Hyperglycemia was induced by streptozotocin (STZ) to accelerated Alzheimer's disease progression of 6-month-old male transgenic 3×Tg−AD mice. Half of the 3×Tg−AD mice (n=30) received STZ (100 mg/kg) intraperitoneal injection at days 1, 2, 8, and 9 respectively as the high blood glucose group (HBG); another half of the 3×Tg-AD mice (n=30) received sodium citrate (0.1 M) at the same time points as the normal blood glucose group (NBG). […] Both mouse body weight (BW) and blood glucose (BG) were monitored every week.
Mice were sacrificed after MWM and hippocampi were isolated for analyzing several protein expression levels by means of western blot. The protein of the hippocampi was quantified by BCA assay (Pierce), wherein 25 μg of protein was separated by SDS-PAGE and then transferred to PVDF film. Next, protein was blocked for reducing non-specific signals, and reacted with primary antibodies (GSK-3β, pS9-GSK-3β (non-activated), pT216-GSK-3β(activated), pS202Tau, pS396Tau, pT231Tau, HT7 (total Tau)), and secondary antibodies (anti-rabbit, anti-mouse IgG HRP-linked antibody; 1:10,000; Amersham Pharmacia Biotech). β-actin was used as the loading control, ECL kit was used to detect the antigen-antibody complex, and LAS-4000 (Fujifilm) was used for imaging and quantification.

A further assay relates to Aβ40, Aβ42. Briefly: Immunohistochemical staining of Aβ in brain tissue. The conditions noted are these: 0.25 mg/kg i.p. daily 28 days. It is filed as in vivo, mouse. The method, then: Hyperglycemia was induced by streptozotocin (STZ) to accelerated Alzheimer's disease progression of 6-month-old male transgenic 3×Tg−AD mice. Half of the 3×Tg−AD mice (n=30) received STZ (100 mg/kg) intraperitoneal injection at days 1, 2, 8, and 9 respectively as the high blood glucose group (HBG); another half of the 3×Tg-AD mice (n=30) received sodium citrate (0.1 M) at the same time points as the normal blood glucose group (NBG). Then, HBG and NBG were divided into two groups respectively to give four groups such as NBG-compound (I), HBG-compound (I), NBG-DMSO, and HBG-DMSO with n=15 in each group; wherein 0.25 mg/kg of compound (I) (in 30 μL) were intraperitoneal injected into those mice of NBG-compound (I) and HBG-compound (I) groups daily since day 14 for 28 days, and 30 μL of DMSO solvent were intraperitoneal injected into those mice of NBG-DMSO and HBG-DMSO groups daily since day 14 for 28 days. Both mouse body weight (BW) and blood glucose (BG) were monitored every week.
After the brain tissue of the mice was fixed and dehydrated, the tissue was cryosectioned (30 μm). The cryosections were then washed with phosphate buffered saline (PBS) for three times. After the optimal cutting temperature compound (OCT) was removed, 3% H2O2 was used to remove the endogenous peroxidase, and the cryosections were blocked by the blocking solution for 1 hour to reduce the non-specific antigen reactions. The primary antibodies (Aβ40, Aβ42) were added and reacted for 12 hours, the secondary antibody (1:200 dilution in blocking solution, Vecter) was added and reacted for 1 hour, and then, the avidin-biotin complex was added and reacted for 1 hour. Finally, DAB-kit was used for coloring. All the stained sections were attached to the slides, dried, dehydrated, and mounted for imaging and quantification (Image Pro Plus). The quantification results were shown in Table 1, wherein ↑, ↓:p<0.05; ↑↑, ↓↓:p<0.01.

The test system of assay [1] is GSK-3β (total and p-Ser9). The assay can be described thus: Western blot of total and phosphorylated GSK-3β in tauRD-DsRed SH-SY5Y cells. It is filed as cell-based, human. The procedure: (§1) Western blotting analysis was applied for examining the expressions of HSPB1 and GRP78, the method was as follows: total proteins were extracted using RIPA buffer, which comprised 50 mM Tris-HCl, 150 mM NaCl, 1 mM EDTA, 1 mM EGTA, 0.1% SDS, 0.5% sodium deoxycholate, 1% Triton X-100, and a protease inhibitor cocktail (Calbiochem). […] of total proteins were separated on 10% SDS-PAGE gels and blotted onto nitrocellulose membrane which were stained (4° C., overnight) with antibodies against DsRed (1:500; Santa Cruz), HSPB1 (1:500; Santa Cruz), and GRP78 (1:200; Santa Cruz). Next, immunoreactive bands were detected using horseradish peroxidase-conjugated goat anti-mouse, goat anti-rabbit, or donkey anti-goat IgG antibodies (1:5000; GeneTex) and chemiluminescent substrate (Millipore).
(§2) The methods of cell culture and western blot analysis are similar to that described above, except that the antibodies against GSK-3β (total and p-Ser9) (1:1000; Cell Signaling), total tau (1:500; Dako), p-tau (Ser202) (1:500; AnaSpec), p-tau (Thr231 and Ser396) (1:1000; Invitrogen), [3-actin (1:5000; Millipore), or GAPDH (1:2000; MDBio) were used herein for evaluation of the expression levels thereof in the cells.
For orientation: Immunoblotting shows a protein as a band on a membrane.

Assay [2] relates to p-tau (Ser202, Thr231 and Ser396). Briefly: Western blot of phosphorylated tau in tauRD-DsRed SH-SY5Y cells. It is filed as cell-based, human. To be noted: untreated = 100%. The procedure: as §1, §2
The mark [3] stands for this setting: HBG (high blood glucose, STZ) 3×Tg-AD mice.
Setting [4] is: NBG (normal blood glucose) 3×Tg-AD mice.

T1 sequence (P49841 whole entry): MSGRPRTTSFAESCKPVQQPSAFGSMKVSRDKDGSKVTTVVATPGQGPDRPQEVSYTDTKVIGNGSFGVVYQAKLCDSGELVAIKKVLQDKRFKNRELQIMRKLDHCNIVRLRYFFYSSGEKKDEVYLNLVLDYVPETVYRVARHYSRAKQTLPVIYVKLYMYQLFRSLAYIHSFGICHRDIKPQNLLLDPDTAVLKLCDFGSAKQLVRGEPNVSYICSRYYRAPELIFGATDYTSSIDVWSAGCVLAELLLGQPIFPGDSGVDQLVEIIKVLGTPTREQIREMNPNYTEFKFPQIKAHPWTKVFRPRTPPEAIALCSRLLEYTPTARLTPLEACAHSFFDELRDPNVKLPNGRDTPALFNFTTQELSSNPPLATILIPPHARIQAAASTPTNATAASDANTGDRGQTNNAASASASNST

With `CCCCC/C=C\C/C=C\C/C=C\C/C=C\CCCC(=O)Nc1ccc(O)cc1` [compound (I), (5Z, 8Z, 11Z,14Z)-N-(4-Hydroxyphenyl)icosa-5 ,8 , 11,14-tetraen amide], the half-maximal inhibitory concentration (IC50) – broadly, the midpoint of a concentration-inhibition curve – at Recombinant human GSK-3β (25 μM ATP, 1 ng GSK-3β, 30° C., 30 minutes) was 5.35 µM. In addition, the remaining activity at 0.018 µM at Recombinant human GSK-3β (concentration of compound (I) 0.018 μM, read-out: residual activity of GSK-3β) is 69.6 ± 2%. Also, the “GSK-3β inhibition in hippocampus (pT216-GSK-3β/GSK-3β, pS9-GSK-3β/GSK-3β)” value in the assay on GSK-3β is “exerts inhibition for GSK-3β”. Moreover, in the assay with Aβ40, Aβ42 (setting [3]), the Aβ40 staining quantification was 164.78 ± 9.51↓↓ and the Aβ42 staining quantification is on record as 26.91 ± 1.28↓. In the assay on Aβ40, Aβ42 (setting [4]), this molecule showed an Aβ40 staining quantification of 181.88 ± 4.17 and an Aβ42 staining quantification of 29.13 ± 0.64. Further, in assay [1], the GSK-3β expression entry is listed as “down-regulated” and the “expression level of phosphorylated GSK-3β” value is reported as “increased”. In assay [2], the “phosphorylated tau Ser202 level relative to untreated cells” value is listed as 32%-42%, the “phosphorylated tau Ser396 level relative to untreated cells” value is given as 54%-78% and the “phosphorylated tau Thr231 level relative to untreated cells” value is 37%-48%.
